{"source": "patent US9464112B2", "about": "“Peptides having NF-κB inhibitory activity, or composition comprising same” (KNU-INDUSTRY COOPERATION FOUNDATION, priority 2012, dated 2016)", "type_in_all_cases": "cell-based", "key": {"[1]": {"system": "COX-2", "assay": "COX-2 expression in UVB-irradiated human keratinocytes HaCaT (Western blotting)", "settings": "peptide 0.1˜2 μM, dose-dependent", "procedure": "(§1) We evaluated the inhibitory activities of the peptide of the present invention on expressions of the representative pro-inflammatory factors, i.e., TNF-α and IL-1α, the expressions of which are induced by ultraviolet stimulation. Specifically, the HaCaT cells (Molecular Biology Engineering Lab, Chemical & Biochemical Engineering, Dongguk University) were irradiated with UVB (312 nm, 12.5 mJ/cm^2) and then treated with the peptide of SEQ ID NO: 1 in the concentrations of 0.1˜2 μM. At this time, the control group was treated with dexamethasone (Dex) having the immunosuppressive function, at the irradiation of UVB. After 48 hours, the cell extracts were subject to the Western blotting assay so as to measure the expressions of TNF-α and IL-1α.\n(§2) And also, the cell extracts were subject to the enzyme immunoassay so as to evaluate the inhibitory effects on formation of PGE2 (one of pro-inflammatory factors). For this assay, we also used the group treated with dexamethasone at the irradiation of UVB as a control group. In addition, the expression of COX-2 (which is a PGE2 formation-mediating enzyme) was measured through the Western blotting assay; and the results thereof are shown in FIG. 8."}, "[2]": {"system": "PGE2", "assay": "PGE2 formation in UVB-irradiated human keratinocytes HaCaT (enzyme immunoassay)", "settings": "peptide 0.1˜2 μM, dose-dependent", "procedure": "as §1, §2"}, "[3]": {"system": "procollagen type-1", "assay": "Procollagen type-1 expression in UVB-irradiated human dermal fibroblasts (Western blotting)", "settings": "peptide 0.1˜2 μM, UVB 312 nm 12.5 mJ/cm^2, 48 hours, dose-dependent", "source_text": "(§3) It is known that MMP-1, the expression of which is induced by ultraviolet stimulation in human dermal fibroblasts, degrades collagen fibers to facilitate cutaneous photoaging as well as wrinkle formation. Since the expression of MMP-1 is induced by NF-κB activation, we evaluate the inhibition thereof by the treatment of the peptides of the present invention, using human dermal fibroblasts (ATCC PCS-201-012, USA).\n(§4) The human dermal fibroblasts was irradiated with UVB (312 nm, 12.5 mJ/cm^2) and then treated with the peptide of SEQ ID NO: 1 in the concentrations of 0.1˜2 μM. After 48 hours, the cell extracts were subject to the Western blotting assay so as to measure the expressions of MMP-1 and procollagen type-1. […] Therefore, it can be seen that the peptide of the present invention can inhibit ultraviolet radiation-induced cutaneous photoaging."}, "[4]": {"system": "MMP-1", "assay": "MMP-1 expression in UVB-irradiated human dermal fibroblasts (Western blotting)", "settings": "peptide 0.1˜2 μM, UVB 312 nm 12.5 mJ/cm^2, 48 hours, dose-dependent", "source_text": "as §3, §4"}, "[5]": {"system": "IL-1α", "assay": "IL-1α expression in UVB-irradiated human keratinocytes HaCaT (Western blotting)", "settings": "UVB 312 nm 12.5 mJ/cm^2, 48 hours, peptide 0.1˜2 μM, dose-dependent", "procedure": "as §1"}, "[6]": {"system": "TNF-α", "assay": "TNF-α expression in UVB-irradiated human keratinocytes HaCaT (Western blotting)", "settings": "UVB 312 nm 12.5 mJ/cm^2, 48 hours, peptide 0.1˜2 μM, dose-dependent", "procedure": "as §1"}}, "data": [{"substance": "Arg-Phe-Arg (RFR; Peptide fragment) [SEQ ID NO: 1, peptide fragment derived from the NF-κB p65 subunit]", "values": [{"measurement": "expression of COX-2", "setting": "[1]", "value": "reduced"}, {"measurement": "PGE2 formation increased by ultraviolet stimulation", "setting": "[2]", "value": "reduced"}, {"measurement": "expression of procollagen type-1", "setting": "[3]", "value": "increased"}, {"measurement": "expression of MMP-1 increased by ultraviolet stimulation", "setting": "[4]", "value": "reduced"}, {"measurement": "expression of IL-1α", "setting": "[5]", "value": "reduced"}, {"measurement": "expression of TNF-α", "setting": "[6]", "value": "reduced"}]}]}
